Data taken from patent US5739161A, “Agent for treating hepto.biliary diseases” (priority 1994, dated 1998).
Read-outs that look alike come from different tables or passages of the source. Values belong to the molecule of their own block, whether it stands above or below them.

Key:
hepatocyte = details: cited from earlier work
[1] = system: acute hepatopathy model (galactosamine-elicited); assay: D-galactosamine acute hepatopathy model in rats, serum biochemical liver function test (inhibiting ratio); assay type: in vivo, rat (Crj: Wister); details: rat, oral; for inhibition in vivo at 0.03 mg/kg / inhibition in vivo at 0.1 mg/kg / inhibition in vivo at 1 mg/kg / inhibition in vivo at 0.01 mg/kg: 24 h; for inhibition in vivo at 0.01 mg/kg: 10 μg/kg × 3
Description: (§1) Crj: Wister rats (7 weeks old, weight: 220-250 g) were kept without food for 16 hours, and hydrochloric acid-D-galactosamine 800 mg/kg was administrated by intra peritonealy injection in order to elicit acute hepatopathy model. After 24 hours from the administration of galactosamine, blood sample was collected under ether anesthesia and a serum was separated. The serum was assayed for serum biochemical profile of liver function test by an automatic analyzer (AU 550 available Orympus Kogaku Kogyo K.K.).
(§2) Test compound was dissolved in 0.5% ethanol physiological saline, which was orally administered by force using an oral sonde for rat at 30 minutes before, 2 hours and 6 hours after the administration of the galactosamine.
The following four items were tested for the serum biochemical liver function test: glutamic oxaloacetic transaminase (GOT), glutamic pyruvic transaminase (GPT) lactate dehydrogenase (LDH)
The inhibiting Ratio (%) was obtained by the results of the serum biochemical profile of liver functional test how much the increases in the above four items by the administration of galactosamine was inhibited by the test compounds. The Inhibiting, Ratio (%) was calculated by the following equation: [formula] (All of the data in the equation are represented by average) […]
(§3) This test was carried out according the same manner as in the Example 1 providing the following compounds were used as test compounds.
(§4) This test was carried out according the same manner as in the Example 1 using the following compounds as test compounds.
(§5) This test was carried out according the same manner as in the Example 1 excepting the following compounds were used as test compounds.

[2] = observation of diarrhea and loose feces in the rats; assay type: in vivo, rat (Crj: Wister); details: rat, oral
Description: as §1, §2
The generation of a diarrhea and a loose feces observed up to 2 hours after the 3rd administration of the test compounds, and the number of the rats having diarrhea or loose feces were recorded.
as §3, §4, §5

[3] = 30 μg/kg × 3, read-out: inhibiting ratio GOT
[4] = 30 μg/kg × 3, read-out: inhibiting ratio GPT
[5] = 30 μg/kg × 3, read-out: inhibiting ratio T-Bil
[6] = 30 μg/kg × 3, up to 2 hours after 3rd administration
[7] = 100 μg/kg × 3, read-out: inhibiting ratio GOT
[8] = 100 μg/kg × 3, read-out: inhibiting ratio GPT
[9] = 100 μg/kg × 3, read-out: inhibiting ratio T-Bil
[10] = 100 μg/kg × 3, up to 2 hours after 3rd administration
[11] = 1000 μg/kg × 3, read-out: inhibiting ratio GOT
[12] = 1000 μg/kg × 3, read-out: inhibiting ratio GPT
[13] = 1000 μg/kg × 3, read-out: inhibiting ratio T-Bil
[14] = 1000 μg/kg × 3, up to 2 hours after 3rd administration
[15] = read-out: inhibiting ratio T-Bil
[16] = 10 μg/kg × 3, up to 2 hours after 3rd administration

Compound: CCCCC[C@@](C)(O)/C=C/[C@H]1[C@H](O)CC(=O)[C@@H]1C/C=C\CCCC(=O)O [15-methyl-PGE2]
hepatocyte protecting activity (hepatocyte): have a hepatocyte protecting activity

Compound: CCCCC(C)(C)[C@H](O)/C=C/[C@H]1[C@H](O)CC(=O)[C@@H]1C/C=C\CCCC(=O)O [16,16-dimethyl-PGE2]
hepatocyte protecting activity (hepatocyte): have a hepatocyte protecting activity

diarrhea / loose feces (number of rats having diarrhea or loose feces) [2, 6]: 3/10
Compound: CCCCC(F)(F)C(=O)CC[C@H]1[C@H](O)CC(=O)[C@@H]1C/C=C\CCCC(=O)O [Test Compound 1, 13,14-dihydro-15-keto-16,16-difluoro-PGE2, reference compound]
inhibition in vivo at 0.03 mg/kg [1, 3]: 28%
inhibition in vivo at 0.03 mg/kg [1, 4]: 42%
inhibition in vivo at 0.03 mg/kg [1, 5]: 82%
inhibiting ratio LDH ([1]; 30 μg/kg × 3): 22%

diarrhea / loose feces (number of rats having diarrhea or loose feces) [2, 6]: no diarrhea was observed in every rat
Compound: CC(C)CCC(F)(F)C(=O)CC[C@H]1[C@H](O)CC(=O)[C@@H]1C/C=C\CCCC(=O)O [Test Compound 2, Z-7-[(1R,2R,3R)-2-(4,4-difluoro-7-methyl-3-oxooctyl)-3-hydroxy-5-oxocyclopentyl]hept-5-enoic acid]
inhibition in vivo at 0.03 mg/kg [1, 3]: 29%
inhibition in vivo at 0.03 mg/kg [1, 4]: 36%
inhibition in vivo at 0.03 mg/kg [1, 5]: 51%
inhibiting ratio LDH ([1]; 30 μg/kg × 3): 32%

diarrhea / loose feces (number of rats having diarrhea or loose feces) [2, 10]: 1/6
loose feces (number of rats) [2, 10]: 2/6
Compound: CCCCC(F)(F)C(=O)CC[C@H]1[C@H](O)CC(=O)[C@@H]1CCCCCCC(=O)O [Test Compound 3, 13,14-dihydro-15-keto-16,16-difluoro-PGE1, reference compound]
inhibition in vivo at 0.1 mg/kg [1, 7]: 63%
inhibition in vivo at 0.1 mg/kg [1, 8]: 76%
inhibition in vivo at 0.1 mg/kg [1, 9]: 80%
inhibiting ratio LDH ([1]; 100 μg/kg × 3): 61%

diarrhea / loose feces (number of rats having diarrhea or loose feces) [2, 10]: no diarrhea in any cases
Compound: CCC[C@@H](C)C(F)(F)C(=O)CC[C@H]1[C@H](O)CC(=O)[C@@H]1CCCCCCC(=O)O [Test Compound 4, 7-[(1R,2R,3R)-2-{4,4-difluoro-5(R)-methyl-3-oxooctyl}-3-hydroxy-5-oxocyclopentyl]heptanoic acid]
inhibition in vivo at 0.1 mg/kg [1, 7]: 54%
inhibition in vivo at 0.1 mg/kg [1, 8]: 57%
inhibition in vivo at 0.1 mg/kg [1, 9]: 89%
inhibiting ratio LDH ([1]; 100 μg/kg × 3): 51%

diarrhea / loose feces (number of rats having diarrhea or loose feces) [2, 10]: no diarrhea in any cases
Compound: CC(C)CCC(F)(F)C(=O)CC[C@H]1[C@H](O)CC(=O)[C@@H]1CCCCCCC(=O)O [Test Compound 5, 7-[(1R,2R,3R)-2-(4,4-difluoro-7-methyl-3-oxooctyl)-3-hydroxy-5-oxocyclopentyl]heptanoic acid]
inhibition in vivo at 0.1 mg/kg [1, 7]: 51%
inhibition in vivo at 0.1 mg/kg [1, 8]: 66%
inhibition in vivo at 0.1 mg/kg [1, 9]: 72%
inhibiting ratio LDH ([1]; 100 μg/kg × 3): 59%

diarrhea / loose feces (number of rats having diarrhea or loose feces) [2, 14]: no diarrhea
Compound: CC(C)C[C@@H](C)C(F)(F)C(=O)CC[C@H]1[C@H](O)CC(=O)[C@@H]1CCCCCCC(=O)O [Test Compound 6, 7-[(1R,2R,3R)-2-{4,4-difluoro-5(R),7-dimethyl-3-oxooctyl}-3-hydroxy-5-oxocyclopentyl]heptanoic acid]
inhibition in vivo at 1 mg/kg [1, 11]: 60%
inhibition in vivo at 1 mg/kg [1, 12]: 71%
inhibition in vivo at 1 mg/kg [1, 13]: 88%
inhibiting ratio LDH ([1]; 1000 μg/kg × 3): 63%

diarrhea / loose feces (number of rats having diarrhea or loose feces) [2, 14]: no diarrhea
Compound: CC(C)CCC(F)(F)C(=O)CC[C@H]1CCC(=O)[C@@H]1CCCCCCC(=O)O [Test Compound 7, 7-[(1R,2R)-2-(4,4-difluoro-7-methyl-3-oxooctyl)-5-oxocyclopentyl]heptanoicacid]
inhibition in vivo at 1 mg/kg [1, 11]: 52%
inhibition in vivo at 1 mg/kg [1, 12]: 63%
inhibition in vivo at 1 mg/kg [1, 13]: 86%
inhibiting ratio LDH ([1]; 1000 μg/kg × 3): 62%

diarrhea / loose feces (number of rats having diarrhea or loose feces) [2, 14]: no diarrhea
Compound: CCC[C@H](C)C(F)(F)C(=O)CC[C@H]1[C@H](O)CC(=O)[C@@H]1CCCCCCC(=O)O [Test Compound 8]
inhibition in vivo at 1 mg/kg [1, 11]: 59%
inhibition in vivo at 1 mg/kg [1, 12]: 56%
inhibition in vivo at 1 mg/kg [1, 13]: 92%
inhibiting ratio LDH ([1]; 1000 μg/kg × 3): 63%

diarrhea / loose feces (number of rats having diarrhea or loose feces) [2, 10]: non
diarrhea / loose feces (number of rats having diarrhea or loose feces) [2, 14]: non
Compound: CC[C@H](C)CC(F)(F)C(=O)CC[C@H]1[C@H](O)CC(=O)[C@@H]1CCCCCCC(=O)O [Test Compound 9, 7-[(1R,2R,3R)-2-{4,4-difluoro-6(S)-methyl-3-oxooctyl}-3-hydroxy-5-oxocyclopentyl]heptanoic acid]
inhibition in vivo at 0.1 mg/kg [1, 7]: 44%
inhibition in vivo at 0.1 mg/kg [1, 8]: 54%
inhibition in vivo at 0.1 mg/kg [1, 9]: 80%
inhibition in vivo at 1 mg/kg [1, 11]: 84%
inhibition in vivo at 1 mg/kg [1, 12]: 88%
inhibition in vivo at 1 mg/kg [1, 13]: 95%

diarrhea / loose feces (number of rats having diarrhea or loose feces) [2, 10]: non
Compound: CCC[C@@H](C)C(F)(F)C(=O)CC[C@H]1CCC(=O)[C@@H]1CCCCCCC(=O)O [Test Compound 10, 7-[(1R,2R)-2-{4,4-difluoro-5(R)-methyl-3-oxooctyl}-5-oxocyclopentyl]heptanoic acid]
inhibition in vivo at 0.1 mg/kg [1, 7]: 36%
inhibition in vivo at 0.1 mg/kg [1, 8]: 39%
inhibition in vivo at 0.1 mg/kg [1, 9]: 59%

diarrhea / loose feces (number of rats having diarrhea or loose feces) [2, 16]: non
Compound: CC[C@@H](C)CC(F)(F)C(=O)CC[C@H]1[C@H](O)CC(=O)[C@@H]1CCCCCCC(=O)O [Test Compound 11, 7-[(1R,2R,3R)-2-{4,4-difluoro-6(R)-methyl-3-oxooctyl}-3-hydroxy-5-oxocyclopentyl]heptanoic acid]
inhibition in vivo at 0.01 mg/kg ([1]; read-out: inhibiting ratio GOT): 45%
inhibition in vivo at 0.01 mg/kg ([1]; read-out: inhibiting ratio GPT): 34%
inhibition in vivo at 0.01 mg/kg [1, 15]: 56%

diarrhea / loose feces (number of rats having diarrhea or loose feces) [2, 10]: non
Compound: CC(C)CC(F)(F)C(=O)CC[C@H]1[C@H](O)CC(=O)[C@@H]1CCCCCCC(=O)O [Test Compound 12, 7-[(1R,2R,3R)-2-(4,4-difluoro-6-methyl-3-oxoheptyl)-3-hydroxy-5-oxocyclopentyl]heptanoic acid]
inhibition in vivo at 0.1 mg/kg [1, 7]: 38%
inhibition in vivo at 0.1 mg/kg [1, 8]: 40%
inhibition in vivo at 0.1 mg/kg [1, 9]: 69%

diarrhea / loose feces (number of rats having diarrhea or loose feces) [2, 16]: non
Compound: CCC(CC)CC(F)(F)C(=O)CC[C@H]1[C@H](O)CC(=O)[C@@H]1CCCCCCC(=O)O [Test Compound 13, 7-[(1R,2R,3R)-2-(4,4-difluoro-6-ethyl-3-oxooctyl)-3-hydroxy-5-oxocyclopentyl]heptanoic acid]
inhibition in vivo at 0.01 mg/kg ([1]; read-out: inhibiting ratio GOT): 47%
inhibition in vivo at 0.01 mg/kg ([1]; read-out: inhibiting ratio GPT): 42%
inhibition in vivo at 0.01 mg/kg [1, 15]: 75%
